Legend:
[1] = test system: Phakopsora pachyrhizi (F129L); assay: Protective control of soybean rust on soybeans (PHAKPA P2); type: in vivo; conditions: for PHAKPA (F129L) Disease level (%) P2 at 16 ppm / PHAKPA (F129L) Disease level (%) P2 at 4 ppm: P2 protective, % diseased leaf area; for % PHAKPA (F129L) Disease level P2 at 4 ppm: protective P2, 4 ppm; for % PHAKPA (F129L) Disease level P2 at 4 ppm / % PHAKPA (F129L) Disease level P2 at 16 ppm: soybean rust F129L; for % PHAKPA (F129L) Disease level P2 at 16 ppm: protective P2, 16 ppm
[2] = test system: Phakopsora pachyrhizi (F129L); assay: Protective control of soybean rust on soybeans (PHAKPA P6); type: in vivo; conditions: for PHAKPA (F129L) Disease level (%) P6 at 16 ppm / PHAKPA (F129L) Disease level (%) P6 at 4 ppm: P6 protective, % diseased leaf area; for % PHAKPA (F129L) Disease level P6 at 4 ppm: protective P6, 4 ppm; for % PHAKPA (F129L) Disease level P6 at 4 ppm / % PHAKPA (F129L) Disease level P6 at 16 ppm: soybean rust F129L; for % PHAKPA (F129L) Disease level P6 at 16 ppm: protective P6, 16 ppm

SMILES	PHAKPA (F129L) Disease level (%) P2 at 16 ppm [1] [%]	PHAKPA (F129L) Disease level (%) P6 at 16 ppm [2] [%]	% PHAKPA (F129L) Disease level P2 at 4 ppm [1] [%]	% PHAKPA (F129L) Disease level P2 at 16 ppm [1] [%]	% PHAKPA (F129L) Disease level P6 at 4 ppm [2] [%]	% PHAKPA (F129L) Disease level P6 at 16 ppm [2] [%]	PHAKPA (F129L) Disease level (%) P2 at 4 ppm [1] [%]	PHAKPA (F129L) Disease level (%) P6 at 4 ppm [2] [%]
CO/N=C(/C(=O)OC)c1ccccc1CO/N=C(\C)c1cccc(Br)c1 [reference compound]	80	87						
CNC(=O)/C(=N/OC)c1cccc(C)c1CO/N=C(\C)c1cc(C(F)(F)F)ccc1C1CC1 [compound 185]			100	67	90	77		
CNC(=O)/C(=N/OC)c1cccc(C)c1CO/N=C(\C)c1ccccc1OCOC [compound 314]			100	40				
CNC(=O)/C(=N/OC)c1cccc(C)c1CO/N=C(\C)c1ccc(F)cc1CC(F)(F)F [compound 394]			9	3	12	2		
CO/N=C(/C(=O)OC)c1cccc(C)c1CO/N=C(\C)c1ccccc1C1CC1 [compound 217]			97	53	93	100		
CNC(=O)/C(=N/OC)c1cccc(C)c1CO/N=C(\C)c1cc(C(F)(F)F)ccc1C [compound 273]			60	3				
CO/N=C(/C(=O)OC)c1cccc(C)c1CO/N=C(\C)c1cc(-c2ccccc2)cc(C(F)(F)F)c1 [compound 144]			87	80	92	90		
CO/N=C(/C(=O)OC)c1ccccc1CO/N=C(\C)c1ccccc1 [reference compound]	87	43						
CNC(=O)/C(=N/OC)c1cccc(C)c1CO/N=C(\C)c1ccc(C)c(Cl)c1 [compound 109]			8	1	12	0		
CO/N=C(/C)c1ccccc1/C(C)=N/OCc1c(C)cccc1/C(=N\OC)C(=O)OC [compound 187]			100	100	90	90		
CO/N=C(/C(=O)OC)c1cccc(C)c1CO/N=C(\C)c1c(F)cc(Br)cc1C(F)(F)F [compound 368]			83	47	90	73		
CNC(=O)/C(=N/OC)c1cccc(C)c1CO/N=C(\C)c1ccc(-c2ccc(F)cc2)cc1C(F)(F)F [compound 426]			7	1	27	10		
CNC(=O)/C(=N/OC)c1ccccc1CO/N=C(\C)c1cc(Cl)cc(Cl)c1 [reference compound]							100	97
CO/N=C(/C(=O)OC)c1cccc(C)c1CO/N=C(\CC(F)(F)F)c1cccc(C(F)(F)F)c1 [compound 250]			90	90	90	80		
CNC(=O)/C(=N/OC)c1cccc(C)c1CO/N=C(\C)c1ccccc1C1CC1(F)F (stereo not shown) [compound 288]			87	30	97	20		
CO/N=C(/C(=O)OC)c1cccc(C)c1CO/N=C(\C)c1ccc(OC)cc1C(F)(F)F [compound 328]			33	8	23	5		
CNC(=O)/C(=N/OC)c1ccccc1CO/N=C(\C)c1ccc(C#N)cc1 [reference compound]	37	63						
CO/N=C(/C(=O)OC)c1cccc(C)c1CO/N=C(\C)c1ccccc1CC(F)(F)F [compound 222]			100	57	100	93		

SMILES	PHAKPA (F129L) Disease level (%) P2 at 16 ppm [1] [%]	PHAKPA (F129L) Disease level (%) P6 at 16 ppm [2] [%]	% PHAKPA (F129L) Disease level P2 at 4 ppm [1] [%]	% PHAKPA (F129L) Disease level P2 at 16 ppm [1] [%]	% PHAKPA (F129L) Disease level P6 at 4 ppm [2] [%]	% PHAKPA (F129L) Disease level P6 at 16 ppm [2] [%]	PHAKPA (F129L) Disease level (%) P2 at 4 ppm [1] [%]	PHAKPA (F129L) Disease level (%) P6 at 4 ppm [2] [%]
CO/N=C(/C(=O)OC)c1cccc(C)c1CO/N=C(\C)c1ccc(C)c(C(F)(F)F)c1 [compound 229]			27	2	77	6		
C#Cc1ccc(/C(C)=N/OCc2c(C)cccc2/C(=N\OC)C(=O)NC)cc1 [compound 196]			1	0	11	5		
CNC(=O)/C(=N/OC)c1cccc(C)c1CO/N=C(\C)c1cc(Cl)cc(Cl)c1 [Ex. 4, (2E)-2-[2-[[(E)-1-(3,5-dichlorophenyl)ethylideneamino]oxymethyl]-3-methyl-phenyl]-2-methoxyimino-N-methyl-acetamide]			2	0	13	1	2	17
CO/N=C(/C(=O)OC)c1cccc(C)c1CO/N=C(\C)c1ccc(-c2ccccc2)cc1C(F)(F)F [compound 414]			53	9	53	15		
CO/N=C(/C(=O)OC)c1cccc(C)c1CO/N=C(/c1cccc(Cl)c1)C1CC1 [drawing 981, reference compound]		87					83	
CO/N=C(/C(=O)OC)c1ccccc1CO/N=C(\C)c1ccccc1C(F)(F)F [reference compound]	87	90						
CNC(=O)/C(=N/OC)c1ccccc1CO/N=C(/c1ccc(F)cc1)C(F)F [reference compound]	15	15						
CO/N=C(/C(=O)OC)c1ccccc1CO/N=C(\C)c1cc(F)ccc1F [reference compound]	1	22						
CNC(=O)/C(=N/OC)c1cccc(C)c1CO/N=C(\OC)c1cccc(C)c1 [drawing 974, reference compound]		45						
CCOc1ccccc1/C(C)=N/OCc1c(C)cccc1/C(=N\OC)C(=O)NC [compound 312]			100	53				
CNC(=O)/C(=N/OC)c1cccc(C)c1CO/N=C(\C)c1ccccc1OC(C)C [compound 315]			100	60				
CNC(=O)/C(=N/OC)c1cccc(C)c1CO/N=C(\C)c1ccccc1Oc1ccccc1 [compound 321]			100	40				
CO/N=C(/C(=O)OC)c1cccc(C)c1CO/N=C(\C)c1ccc(CC2COC2)cc1 [compound 82]			87	57				
CNC(=O)/C(=N/OC)c1cccc(C)c1CO/N=C(\C)c1cc(C(F)(F)F)ccc1C(F)(F)F [compound 272]			60	8				
CO/N=C(/C(=O)OC)c1cccc(C)c1CO/N=C(\OC)c1cccc(C(F)(F)F)c1 [drawing 977, reference compound]		23						
CO/N=C(/C(=O)OC)c1cccc(C)c1CO/N=C(\C)c1cccc(OC(F)(F)F)c1 [drawing 936, reference compound]							17	
CNC(=O)/C(=N/OC)c1cccc(C)c1CO/N=C(\C)c1ccc(CC2COC2)cc1 [compound 83]			97	73				
CNC(=O)/C(=N/OC)c1cccc(C)c1CO/N=C(\C)c1ccc(OC(F)(F)F)cc1Cl [compound 271]			5	1				

— patent US20230172204A1 (BASF SE, priority 2020, published 2023)
